Consider 14 molecules from publication PMC9322052, “Synthesis and Biological Activity Screening of Newly Synthesized Trimethoxyphenyl-Based Analogues as Potential Anticancer Agents” (Molecules, 2022).

What is called melting point is the temperature, or range, at which the solid turns liquid. Usually IC50 stands for the concentration needed to halve the response being measured. A low value points to greater potency.

For one data set, the system named is β-tubulin. The experiment in a line: Tubulin polymerization inhibition (beta-tubulin ELISA in HepG2 cells). The data set is classed as cell-based, human. The note with it: HepG2 cells, each compound at its IC50 concentration (9 1.38, 10 2.52, 11 3.21, podo 2.08 μM), ELISA. The protocol: The selected candidates were tested at a concentration equal to their IC50 concentration dose value. […] See Section 3.3.2 in Supplementary Material. […] page 18: 3.3. Biological studies 3.3.1. Cytotoxic activity evaluation To measure the cytotoxic activity of the synthesized derivatives 2a-11 in hepatocel- lular carcinoma (HepG2) cell line (ATCC Cat No. HB-8065) as well as normal human liver cell line HL-7702 (ATCC Cat. No. 77402), cell viability assay was assessed using MTT assay method. Cells at density of 1 x 104 were seeded in a 96-well plate at 37 °C for 24 h under 5% CO2. After incubation, the cells were treated with different concentrations of the test compounds 2a-11 and incubated for 24 h, then 20 μl of MTT solution at 5 mg/mL was […] Dimethyl sulphoxide (DMSO) in volume of 100 μl was added to each well to dissolve the purple formazan that had formed. The color […] of the formazan product, which represents the growth condition of the cells, is quan- […] by using an ELISA plate reader (EXL 800, USA) at 570 nm absorbance. The experi- mental conditions were carried out with at least three replicates, and the experiments were repeated at least three times. 3.3.2. Tubulin inhibitions Assay […] according to the manufacturer's instructions using # abcam Human Beta-tubulin […] ELISA Kit ab245722. 3.3.3. Cell cycle analysis of compound 9 Cell cycle analysis in HepG2 cells was investigated using fluorescent Annexin V- FITC/ PI detection kit (BioVision EZCellTM Cell Cycle Analysis Kit Catalog #K920) by flow cytometry assay. […] twice in PBS. After that, the cells were incubated at 37 °C and 5% CO2. […] Apoptosis assay for compound 9 Apoptosis in HepG2 cells was investigated using fluorescent Annexin V-FITC/ PI de- tection kit (BioVision Annexin V-FITC Apoptosis Detection Kit, Catalog #: K101) by flow cy- tometry assay. […] The samples were immediately analyzed using FACS Calibur flow cytometer (Becton and Dickinson, Heidelberg, Germany). 3.3.5. Measurement of mitochondrial membrane potential (MMP) for compound 9 MMP was measured by FACS analysis using abcam ab113852TMRE Mitochondrial Membrane Potential Assay Kit with DiOC2(3) staining using MitoProbeTM DiOC2(3) Assay Kit for Flow Cytometry (M34150). After treatment with compound 9 at its IC50 concentra- tion, cells were stained with DiOC2(3) dye for 30 min in the incubator, then harvested and washed with PBS. […] The samples were immediately analyzed using cell Quest software. […] Effect on p53, Bax and Bcl-2 p53, Bax and Bcl2 enzyme activities in HepG2 cells were detected in the presence of com- pound 9 at its IC50 concentration (μM). The levels of the tumor suppressor gene p53, apoptotic markers Bax as well as the anti-apoptotic marker Bcl-2 were assessed using p53 ELISA kit, Human Bax ELISA kit and Bcl-2 Elisa kit. […]

The test system of data set [1] is hepatocellular carcinoma HepG2 cell line. The experiment in a line: MTT cytotoxicity assay, HepG2. The note with it: 24 h treatment, mean ± SE. The format is cell-based, human. The protocol: All the newly synthesized analogs were evaluated for their in vitro cytotoxicity against the hepatocellular carcinoma HepG2 cell line. Podo was utilized as a reference control in the current study. […] The N-phenyl triazinone derivative 9 was further investigated for its cytotoxic effects against normal liver cell line HL-7702.
MTT colorimetric assay was carried out to investigate the impact of the newly synthesized compounds 2–11 on hepatocellular carcinoma (HepG2) and normal liver cell line (HL-7702) cell lines. See Section 3.3.1 in Supplementary Material.
3.3.1. Cytotoxic activity evaluation
To measure the cytotoxic activity of the synthesized derivatives 2a-11 in hepatocel-lular carcinoma (HepG2) cell line (ATCC Cat No. HB-8065) as well as normal human liver cell line HL-7702 (ATCC Cat. No. 77402), cell viability assay was assessed using MTT assay method. Cells at density of 1 x 104 were seeded in a 96-well plate at 37 °C for 24 h under 5% CO2. After incubation, the cells were treated with different concentrations of the test compounds 2a-11 and incubated for 24 h, then 20 μl of MTT solution at 5 mg/mL was applied and incubated for 4 h at 37 °C. Dimethyl sulphoxide (DMSO) in volume of 100 µl was added to each well to dissolve the purple formazan that had formed. The color inten-sity of the formazan product, which represents the growth condition of the cells, is quan-tified by using an ELISA plate reader (EXL 800, USA) at 570 nm absorbance. The experi-mental conditions were carried out with at least three replicates, and the experiments were repeated at least three times.
3.3.2. Tubulin inhibitions Assay
Compounds 9, 10 and 11 were evaluated for their tubulin inhibitory activity levels according to the manufacturer’s instructions using # abcam Human Beta-tubulin simplestep […]
3.3.3. Cell cycle analysis of compound 9
Cell cycle analysis in HepG2 cells was investigated using fluorescent Annexin V-FITC/ PI detection kit (BioVision EZCellTM Cell Cycle Analysis Kit Catalog #K920) by flow cytometry assay. HepG2 cells at a density of 2 × 10^5 per well were harvested and washed twice in PBS. After that, the cells were incubated at 37 °C and 5% CO2. […] Afterward, medium was stained with DNA flu-orochrome PI for 15 min at 37 °C. The samples were immediately analyzed using Facs Calibur flow cytometer (Becton and Dickinson, Heidelberg, Germany).
3.3.4. Apoptosis assay for compound 9
Apoptosis in HepG2 cells was investigated using fluorescent Annexin V-FITC/ PI de-tection kit (BioVision Annexin V-FITC Apoptosis Detection Kit, Catalog #: K101) by flow cy-tometry assay. HepG2 cells at a density of 2 × 10^5 per well were treated with compound 9 at its IC50 (μM) for 48 h, then the cells were harvested and stained with Annexin V-FITC/ PI dye for 15 min in the dark at 37 °C. The samples were immediately analyzed using FACS Calibur flow cytometer (Becton and Dickinson, Heidelberg, Germany).
3.3.5. Measurement of mitochondrial membrane potential (MMP) for compound 9 MMP was measured by FACS analysis using abcam ab113852TMRE Mitochondrial Membrane Potential Assay Kit with DiOC2(3) staining using MitoProbe™ DiOC2(3) Assay Kit for Flow Cytometry (M34150). After treatment with compound 9 at its IC50 concentra-tion, cells were stained with DiOC2(3) dye for 30 min in the incubator, then harvested and washed with PBS. DiOC2(3)-stained cells were represented with Annexin binding buffer and incubated at 37 °C for 15 min. The samples were immediately analyzed using cell […]
3.3.6. Effect on p53, Bax and Bcl-2 p53, Bax and Bcl2 enzyme activities in HepG2 cells were detected in the presence of com-pound 9 at its IC50 concentration (μM). The levels of the tumor suppressor gene p53, apoptotic markers Bax as well as the anti-apoptotic marker Bcl-2 were assessed using p53 ELISA kit, Human Bax ELISA kit and Bcl-2 Elisa kit. […]
(In general: Tetrazolium assays rely on reduction of a dye to a coloured formazan, in cell work by metabolically active cells.)

For the molecule `COc1ccc(C2=N/C(=C\c3cc(OC)c(OC)c(OC)c3)C(=O)NN2c2nc(-c3ccccc3)cs2)cc1OC` [Compound 11, (Z)-3-(3,4-Dimethoxyphenyl)-2-(4-Phenylthiazol-2-yl)-5-(3,4,5-Trimethoxybenzylidene)-1,2-Dihydro-1,2,4-Triazin-6(5H)-one], the melting point was 248 to 250 °C. In the data set with β-tubulin, the “β-tubulin polymerization inhibition percentage” value came to 69.95%. The IC50 in data set [1] (Homo sapiens, HepG2, 24 h) is 3.21 ± 0.22 µM.

Molecule `COc1ccc(C2=N/C(=C\c3cc(OC)c(OC)c(OC)c3)C(=O)N2c2ccc(O)cc2)cc1OC` [Compound 7a, (Z)-2-(3,4-Dimethoxyphenyl)-1-(4-Hydroxyphenyl)-4-(3,4,5-Trimethoxybenzylidene)-1H-Imidazol-5(4H)-one] registered a melting point of 248 to 250 °C.

As to `COc1ccc(NC(=O)/C(=C/c2cc(OC)c(OC)c(OC)c2)NC(=O)c2ccc(OC)c(OC)c2)cc1` [Compound 4c, (Z)-3,4-Dimethoxy-N-(3-(4-Methoxyphenylamino)-3-oxo-1-(3,4,5-Trimethoxyphenyl)prop-1-en-2-yl)benzamide], the melting point fell in the range of 248 to 250 °C. In data set [1] (Homo sapiens, HepG2, 24 h), this molecule registered an IC50 of 23.7 ± 1.37 µM.

As for `COc1ccc(C(=O)N/C(=C\c2cc(OC)c(OC)c(OC)c2)C(=O)NNC(=O)c2ccncc2)cc1OC` [Compound 6, (Z)-N-(3-(2-Isonicotinoylhydrazinyl)-3-oxo-1-(3,4,5-Trimethoxyphenyl)prop-1-en-2-yl)-3,4-Dimethoxybenzamide], the melting point was in the range of 248 to 250 °C. The molecule also had an IC50 in data set [1] of 8.74 ± 0.57 µM. Moreover, the IC50 in data set [1] (Homo sapiens, HepG2, 24 h) is less than 10 µM.

With `COc1ccc(C(=O)N/C(=C\c2cc(OC)c(OC)c(OC)c2)C(=O)NNc2ccccc2)cc1OC` [Compound 5, (Z)-3,4-Dimethoxy-N-(3-oxo-3-(2-Phenylhydrazinyl)-1-(3,4,5-Trimethoxyphenyl)prop-1-en-2-yl)benzamide], the concentration for half-maximal inhibition (IC50) in data set [1] was 9.24 ± 0.52 µM; in data set [1] (Homo sapiens, HepG2, 24 h), less than 10 µM.

On to `COc1ccc(N2C(=O)/C(=C/c3cc(OC)c(OC)c(OC)c3)N=C2c2ccc(OC)c(OC)c2)cc1` [Compound 7b, (Z)-2-(3,4-Dimethoxyphenyl)-1-(4-Methoxyphenyl)-4-(3,4,5-Trimethoxybenzylidene)-1H-Imidazol-5(4H)-one], for which the melting point is 248 to 250 °C. This molecule also gave an IC50 in data set [1] of 6.45 ± 0.24 µM. In addition, the IC50 in data set [1] (Homo sapiens, HepG2, 24 h) is less than 10 µM.

With `CCOC(=O)/C(=C/c1cc(OC)c(OC)c(OC)c1)NC(=O)c1ccc(OC)c(OC)c1` [Compound 2b, (Z)-Ethyl 2-(3,4-Dimethoxybenzamido)-3-(3,4,5-Trimethoxyphenyl)acrylate], the melting point is 248 to 250 °C. Besides, the IC50 in data set [1] was 11.1 ± 0.77 µM. In data set [1] (Homo sapiens, HepG2, 24 h), this molecule returned an IC50 of less than 20 µM.

Molecule `COc1ccc(C(=O)N/C(=C\c2cc(OC)c(OC)c(OC)c2)C(=O)Nc2ccc(O)cc2)cc1OC` [Compound 4b, (Z)-N-(3-(4-Hydroxyphenylamino)-3-oxo-1-(3,4,5-Trimethoxyphenyl)prop-1-en-2-yl)-3,4-Dimethoxybenzamide] had a melting point of 248 to 250 °C. The same molecule gave an IC50 in data set [1] of 17.7 ± 1.1 µM. In data set [1] (Homo sapiens, HepG2, 24 h), the IC50 was less than 20 µM.

`COc1ccc(C(=O)N/C(=C\c2cc(OC)c(OC)c(OC)c2)C(=O)NCC(=O)O)cc1OC` [Compound 3a, (Z)-2-(2-(3,4-Dimethoxybenzamido)-3-(3,4,5-Trimethoxyphenyl)acrylamido)acetic Acid] came in with a melting point of 248 to 250 °C. Besides, the IC50 in data set [1] was found to be 8.13 ± 0.54 µM. In data set [1] (Homo sapiens, HepG2, 24 h), this molecule displayed an IC50 of less than 10 µM.

As for `COc1ccc(C(=O)N/C(=C\c2cc(OC)c(OC)c(OC)c2)C(=O)NC(C)C(=O)O)cc1OC` (stereo not drawn) [Compound 3b, (Z)-2-(2-(3,4-Dimethoxybenzamido)-3-(3,4,5-Trimethoxyphenyl)acrylamido)propanoic Acid], the melting point lay within 248 to 250 °C. This molecule registered an IC50 in data set [1] of 19.4 ± 1.43 µM. In addition, the concentration for half-maximal inhibition (IC50) in data set [1] (Homo sapiens, HepG2, 24 h) was less than 20 µM.

In turn, `COC(=O)/C(=C/c1cc(OC)c(OC)c(OC)c1)NC(=O)c1ccc(OC)c(OC)c1` [Compound 2a, (Z)-Methyl 2-(3,4-Dimethoxybenzamido)-3-(3,4,5-Trimethoxyphenyl)acrylate] had a melting point of 248 to 250 °C. The molecule further showed an IC50 in data set [1] of 14.4 ± 0.82 µM. This molecule returned an IC50 in data set [1] (Homo sapiens, HepG2, 24 h) of less than 20 µM.

Molecule `COc1ccc(C2=N/C(=C\c3cc(OC)c(OC)c(OC)c3)C(=O)NN2C(N)=S)cc1OC` [Compound 8, (Z)-3-(3,4-Dimethoxyphenyl)-6-oxo-5-(3,4,5-Trimethoxybenzylidene)-5,6-Dihydro-1,2,4-Triazine-2(1H)-Carbothioamide] returned a melting point of 248 to 250 °C.

As to `COc1ccc(C(=O)N/C(=C\c2cc(OC)c(OC)c(OC)c2)C(=O)NNc2ccccc2)cc1OC` (hydrate or solvate) [Compound 5, (Z)-3,4-Dimethoxy-N-(3-oxo-3-(2-Phenylhydrazinyl)-1-(3,4,5-Trimethoxyphenyl)prop-1-en-2-yl)benzamide], the melting point is 248 to 250 °C.

`COc1ccc(C(=O)N/C(=C\c2cc(OC)c(OC)c(OC)c2)C(=O)Nc2cccc(C)c2)cc1OC` [Compound 4a, (Z)-3,4-Dimethoxy-N-(3-oxo-3-(M-tolylamino)-1-(3,4,5-Trimethoxyphenyl)prop-1-en-2-yl)benzamide] registered a melting point of 248 to 250 °C. The IC50 in data set [1] (Homo sapiens, HepG2, 24 h) is 45.5 ± 2.89 µM.
